# Experimental data as given in patent US20260000642A1 (Tay Therapeutics Limited, priority 2022, published 2026).
# Several values for one entry are separate records, joined by “and”; a condition that tells them apart may be missing. Equal entries are not always repeated.
# System: collagen-induced arthritis in Lewis rats
# Assay: Collagen-induced arthritis (CIA) model in rats: body weight, paw volume, clinical scores, clinical observations
# [1] = Group 5 (CIA + Example 101 3 mg/kg), Day 13, individual animals, 3 mg/kg
# [2] = Group 5 (CIA + Example 101 3 mg/kg), Day 16, individual animals, 3 mg/kg
# [3] = Group 5 (CIA + Example 101 3 mg/kg), Day 17, individual animals, 3 mg/kg
# [4] = Group 5 (CIA + Example 101 3 mg/kg), Day 20, individual animals, 3 mg/kg
# [5] = Group 6 (CIA + Example 101 10 mg/kg), Day 2, individual animals, 10 mg/kg
# [6] = Group 6 (CIA + Example 101 10 mg/kg), Day 5, individual animals, 10 mg/kg
# [7] = Group 6 (CIA + Example 101 10 mg/kg), Day 6, individual animals, 10 mg/kg
# [8] = Group 6 (CIA + Example 101 10 mg/kg), Day 7, individual animals, 10 mg/kg
# [9] = Group 6 (CIA + Example 101 10 mg/kg), Day 13, individual animals, 10 mg/kg
# [10] = Group 6 (CIA + Example 101 10 mg/kg), Day 15, individual animals, 10 mg/kg
# [11] = Group 6 (CIA + Example 101 10 mg/kg), Day 18, individual animals, 10 mg/kg
# [12] = Group 6 (CIA + Example 101 10 mg/kg), Day 19, individual animals, 10 mg/kg
# [13] = Group 6 (CIA + Example 101 10 mg/kg), Day 20, individual animals, 10 mg/kg
# [14] = Group 7 (CIA + Example 101 30 mg/kg), Day 1, individual animals, 30 mg/kg
# [15] = Group 7 (CIA + Example 101 30 mg/kg), Day 9, individual animals, 30 mg/kg
# [16] = Group 7 (CIA + Example 101 30 mg/kg), Day 11, individual animals, 30 mg/kg
# [17] = Group 7 (CIA + Example 101 30 mg/kg), Day 12, individual animals, 30 mg/kg
# [18] = Group 7 (CIA + Example 101 30 mg/kg), Day 13, individual animals, 30 mg/kg
# [19] = Group 7 (CIA + Example 101 30 mg/kg), Day 15, individual animals, 30 mg/kg
# [20] = Group 7 (CIA + Example 101 30 mg/kg), Day 17, individual animals, 30 mg/kg
# [21] = Group 7 (CIA + Example 101 30 mg/kg), Day 20, individual animals, 30 mg/kg
# [22] = Group 7 (CIA + Example 101 30 mg/kg), Day 21, individual animals, 30 mg/kg
smiles,measurement,setting,value
"CNC(=O)c1[nH]c(C(=O)NC2CCC2)cc1O[C@@H](C)c1ccccc1 [Example 101, N^5-cyclobutyl-N^2-methyl-3-(1-phenylethoxy)-1H-pyrrole-2,5-dicarboxamide]",Animal body weight,[1],180 g
same,Animal body weight percent change,[1],9.70%
same,Animal body weight,"Group 5 (CIA + Example 101 3 mg/kg), Day 14, individual animals, 3 mg/kg",180 g
same,Animal body weight,[2],150 g and 170 g
same,Animal body weight percent change,[2],0.58%
same,Animal body weight,[3],170 g
same,Animal body weight percent change,[3],−4.40%
same,Animal body weight percent change,"Group 5 (CIA + Example 101 3 mg/kg), Day 18, individual animals, 3 mg/kg",−4.40% and 0.00%
same,Animal body weight,"Group 5 (CIA + Example 101 3 mg/kg), Day 19, individual animals, 3 mg/kg",150 g and 170 g
same,Animal body weight,[4],160 g and 170 g
same,Animal body weight percent change,[4],−4.40% and 0.60%
same,Animal body weight percent change,"Group 5 (CIA + Example 101 3 mg/kg), Day 21, individual animals, 3 mg/kg",0.60%
same,Animal body weight percent change,"Group 6 (CIA + Example 101 10 mg/kg), Day 0, individual animals",0.00%
same,Animal body weight,"Group 6 (CIA + Example 101 10 mg/kg), Day 0, individual animals, 10 mg/kg",170 g and 160 g
same,Animal body weight percent change,"Group 6 (CIA + Example 101 10 mg/kg), Day 1, individual animals, 10 mg/kg",0.00% and 0.64% and 5.00%
same,Animal body weight,[5],160 g
same,Animal body weight percent change,[5],0.62%
same,Animal body weight percent change,"Group 6 (CIA + Example 101 10 mg/kg), Day 3, individual animals, 10 mg/kg",0.59%
same,Animal body weight percent change,"Group 6 (CIA + Example 101 10 mg/kg), Day 4, individual animals, 10 mg/kg",0.58% and 0.59% and 3.70% and −0.61% and 7.50%
same,Animal body weight,[6],170 g and 160 g
same,Animal body weight percent change,[6],−0.62%
same,Animal body weight,[7],170 g
same,Animal body weight percent change,[7],−1.76% and 10.00%
same,Animal body weight,[8],180 g
same,Animal body weight percent change,[8],−0.61%
same,Animal body weight,"Group 6 (CIA + Example 101 10 mg/kg), Day 8, individual animals, 10 mg/kg",180 g
same,Animal body weight percent change,"Group 6 (CIA + Example 101 10 mg/kg), Day 9, individual animals, 10 mg/kg",3.70%
same,Animal body weight percent change,"Group 6 (CIA + Example 101 10 mg/kg), Day 10, individual animals, 10 mg/kg",0.00%
same,Animal body weight percent change,"Group 6 (CIA + Example 101 10 mg/kg), Day 11, individual animals, 10 mg/kg",−0.59% and 0.62%
same,Animal body weight,[9],150 g and 160 g
same,Animal body weight percent change,[9],0.62% and −0.62%
same,Animal body weight,[10],170 g
same,Animal body weight percent change,[10],−0.62%
same,Animal body weight percent change,"Group 6 (CIA + Example 101 10 mg/kg), Day 16, individual animals, 10 mg/kg",0.00% and −0.62%
same,Animal body weight percent change,"Group 6 (CIA + Example 101 10 mg/kg), Day 17, individual animals, 10 mg/kg",0.62% and 20.00%
same,Animal body weight,[11],160 g
same,Animal body weight percent change,[11],0.00%
same,Animal body weight,[12],170 g and 160 g (2×)
same,Animal body weight percent change,[12],−0.58%
same,Animal body weight,[13],170 g
same,Animal body weight percent change,[13],−0.62% and −0.61%
same,Animal body weight percent change,"Group 6 (CIA + Example 101 10 mg/kg), Day 21, individual animals, 10 mg/kg",−0.62%
same,Animal body weight percent change,"Group 7 (CIA + Example 101 30 mg/kg), Day 0, individual animals",0.00%
same,Animal body weight,[14],160 g and 170 g
same,Animal body weight percent change,[14],−0.61% and 1.20%
same,Animal body weight,"Group 7 (CIA + Example 101 30 mg/kg), Day 2, individual animals, 30 mg/kg",170 g
same,Animal body weight,"Group 7 (CIA + Example 101 30 mg/kg), Day 3, individual animals, 30 mg/kg",160 g
same,Animal body weight,"Group 7 (CIA + Example 101 30 mg/kg), Day 4, individual animals, 30 mg/kg",160 g
same,Animal body weight percent change,"Group 7 (CIA + Example 101 30 mg/kg), Day 5, individual animals, 30 mg/kg",0.00% and 0.61%
same,Animal body weight percent change,"Group 7 (CIA + Example 101 30 mg/kg), Day 7, individual animals, 30 mg/kg",0.61%
same,Animal body weight percent change,"Group 7 (CIA + Example 101 30 mg/kg), Day 8, individual animals, 30 mg/kg",7.10% and −0.61% (2×) and −0.60%
same,Animal body weight,[15],170 g
same,Animal body weight percent change,[15],−0.58%
same,Animal body weight percent change,"Group 7 (CIA + Example 101 30 mg/kg), Day 10, individual animals, 30 mg/kg",−0.58% and 0.00% (2×)
same,Animal body weight,[16],170 g
same,Animal body weight percent change,[16],0.61%
same,Animal body weight,[17],170 g and 160 g
same,Animal body weight percent change,[17],1.20%
same,Animal body weight,[18],170 g and 160 g
same,Animal body weight percent change,[18],−0.61% and 1.30%
same,Animal body weight percent change,"Group 7 (CIA + Example 101 30 mg/kg), Day 14, individual animals, 30 mg/kg",2.60%
same,Animal body weight,[19],170 g and 160 g
same,Animal body weight percent change,[19],0.00% (2×) and 3.90%
same,Animal body weight percent change,"Group 7 (CIA + Example 101 30 mg/kg), Day 16, individual animals, 30 mg/kg",0.65%
same,Animal body weight,[20],170 g
same,Animal body weight percent change,[20],1.30%
same,Animal body weight percent change,"Group 7 (CIA + Example 101 30 mg/kg), Day 18, individual animals, 30 mg/kg",−0.58% and −1.30%
same,Animal body weight percent change,"Group 7 (CIA + Example 101 30 mg/kg), Day 19, individual animals, 30 mg/kg",−1.20%
same,Animal body weight,[21],160 g
same,Animal body weight percent change,[21],6.10%
same,Animal body weight,[22],150 g
same,Animal body weight percent change,[22],6.10% and −2.60%
